The values below come from US5840999A, “Asymmetric benzoxanthene dyes” (The Perkin-Elmer Corporation, priority 1997, dated 1998).

Holding throughout (assay type): physicochemical
The nature of data set [1]: Stability in concentrated NH4OH at 60° C. Conditions: pure dye isomer 2, concentrated ammonia hydroxide, sealed vials, first order fit. How it is done:
(§1) See FIGS. 1 and 2 for the structures of the dyes referred to in the table. All data are reported for pure dye isomer 2. All emission spectra were recorded in 1×TBE buffer at pH 8.4 in dye solutions having an absorbance of 0.05 at λmax Abs (ca. 1×10^-6 M) at room temperature. Photodecomposition rate was determined for equal volumes of the dyes at initially 1 absorption unit at λmax Abs and run in pairs at equal volumes under equal high intensity white light irradiation at 35° C. in 1×TBE buffer pH 8.4. […] (λmax Abs=0.05).

Data set [2] in a line: Emission spectra of pure dyes (Table II). Conditions: pure dye isomer 2, room temperature; for λmax Em: 1×TBE buffer pH 8.4, absorbance 0.05 at λmax Abs; for Width at Half Height: emission spectrum in 1×TBE buffer pH 8.4.
Data set [3] in a line: Relative brightness at λmax Em with 514 nm excitation. The following applies: pure dye isomer 2, approximately equal concentrations (λmax Abs=0.05). The protocol:
as §1

Data set [4] in a line: Photodecomposition under high intensity white light. The following applies: pure dye isomer 2, 35° C., 1×TBE buffer pH 8.4, from t1/2 for loss of dye. The protocol: as §1

As for TAMRA, in data set [1], the “Stability in NH4OH - t1/2” value was 1.3 h. Moreover, in data set [2], the “λmax Em” value was found to be 577 nm and the “Width at Half Height” value is reported as 39 nm. In data set [3], the “Relative Brightness” value was 0.9.

Regarding “6-carboxy-4,7,2',4',5',7',-hexachlorofluorescein”, in data set [1], the “Stability in NH4OH - t1/2” value amounted to 11 h. In data set [2], the “λmax Em” value is reported as 550 nm and the “Width at Half Height” value is 32 nm. In addition, in data set [4], the “Relative Photostability” value was 17. Further, in data set [3], the “Relative Brightness” value is 2.4.
